# Experimental data: patent US12134610B2, “Somatostatin subtype-2 receptor (SST2R) targeted therapeutics and uses thereof” (priority 2022, dated 2024)
# Read-outs that look alike come from different tables or passages of the source. Starred links: 1 amine or outer side, 2 acyl side, 3 side chain; linkers in the order of their positions; H or OH if unused. Non-standard residues stand in square brackets, D forms with d. Residues, ends and D or L forms follow the SMILES beside them. *: point of attachment. X1 = Cc1cc(F)cc(-c2cnc(NCCNC(=O)CCOCCC(=O)*)c(-c3nc4ccc(Cl)cc4[nH]3)c2N2CCC(N)CC2)c1; Dolaproine = CO[C@@H]([C@@H]1CCCN1)[C@@H](C)C(=O)O; Dil = CC[C@H](C)[C@H](NC)[C@@H](CC(=O)O)OC; PABC = O=C(OCc1ccc(N[*:1])cc1)[*:2]; X2 = C[C@@H](N*)[C@@H](O)c1ccccc1; Cit = NC(=O)NCCC[C@H](N)C(=O)O; NMeV = CN[C@H](C(=O)O)C(C)C
# How the values were obtained:
# Assay type in all cases: cell-based
# [1] = biological target: T1, human somatostatin receptor subtype 2 (Homo sapiens, UniProt P30874); test: Functional cAMP assay for SSTR2 agonists (HTRF) in CHO-K1 cells; settings: CHO-K1 cells stably expressing human SST2, 20 min
# T1 construct: expressed in transfected cells
# T1 sequence (P30874 whole entry): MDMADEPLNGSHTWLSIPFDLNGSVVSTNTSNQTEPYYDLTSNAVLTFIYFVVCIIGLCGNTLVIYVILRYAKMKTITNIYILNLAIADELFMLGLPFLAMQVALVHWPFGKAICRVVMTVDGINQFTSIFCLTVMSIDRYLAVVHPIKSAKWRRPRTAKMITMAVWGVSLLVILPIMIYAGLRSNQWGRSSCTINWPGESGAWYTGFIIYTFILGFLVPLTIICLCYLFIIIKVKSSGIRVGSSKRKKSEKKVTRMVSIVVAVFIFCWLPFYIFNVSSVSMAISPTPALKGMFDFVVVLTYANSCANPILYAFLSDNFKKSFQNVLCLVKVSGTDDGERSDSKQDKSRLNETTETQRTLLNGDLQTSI
# In short: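 CHO-K1 cells stably expressing receptor, plated 4 days before assay, treated 20 min at 37° C. with compound (typically 0-10,000 nM final) plus IBMX and 1.6 μM NKH477 to raise cAMP. HTRF read, 665/620 nm ratio; cAMP from standard curve, EC50 fitted.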
# [2] = system: NCI-H524 (ATCC) human small cell lung cancer cells
# In short: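 NCI-H524 cells (5,000/well) were exposed 24 h after plating to SMDC for 2 h, 11-point two-fold series from 1 uM. After washout they grew a further 70 h. Proliferation was read by CellTiter-Glo luminescence, % inhibition taken vs untreated control, and IC50 fitted by four-parameter nonlinear regression.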
# SST2 = biological target: T2, SST2 (Homo sapiens, UniProt P30874); test: PathHunter CHO-K1 SST2 internalization assay; settings: PathHunter CHO-K1 SST2, 90 min
# T2 construct: host or cells: PathHunter CHO-K1 SST2 cells
# T2 sequence (P30874 whole entry): as above
# In short: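 PathHunter CHO-K1 SST2 cells, seeded and grown 48 h, were exposed to 11-point 1:3 dilutions of SMDC (top final 10 uM) for 90 min at 37 C, 5% CO2. Beta-Glo luminescence was read after 60 min at room temperature. Background-corrected duplicate means were fitted by four-parameter nonlinear regression to give IC50.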
# [3] = 2 h treatment, washout, additional 70 h, read-out: H524 EC50
Structure (SMILES),EC50 ([1]; read-out: hSST2 cAMP Avg EC50) [nM],EC50 ([2]; 2 h) [nM],EC50 (SST2; read-out: Internalization EC50) [nM],EC50 ([1]; hSST2 cAMP Avg EC50 (nM)) [nM],"EC50 [2, 3] [nM]",EC50 (SST2; Internalization EC50 (nM)) [nM]
CC[C@H](C)[C@@H]([C@@H](CC(=O)N1CCC[C@H]1[C@H](OC)[C@@H](C)C(=O)N[C@H](C)[C@@H](O)c1ccccc1)OC)N(C)C(=O)[C@@H](NC(=O)[C@H](C(C)C)N(C)C(=O)OCc1ccc(NC(=O)[C@H](CCCNC(N)=O)NC(=O)[C@@H](NC(=O)[C@H](CCC(N)=O)NC(=O)CCOCCC(=O)NCCNc2ncc(-c3cc(C)cc(F)c3)c(N3CCC(N)CC3)c2-c2nc3ccc(Cl)cc3[nH]2)C(C)C)cc1)C(C)C [Compound 56] (X1-QV[Cit][PABC][NMeV]V[Dil][Dolaproine]-X2),0.23,10.3,15.1,–,–,–
CC[C@H](C)[C@@H]([C@@H](CC(=O)N1CCC[C@H]1[C@H](OC)[C@@H](C)C(=O)N[C@H](C)[C@@H](O)c1ccccc1)OC)N(C)C(=O)[C@@H](NC(=O)[C@H](C(C)C)N(C)C(=O)OCc1ccc(NC(=O)[C@H](CCCNC(N)=O)NC(=O)[C@@H](NC(=O)[C@@H](CCC(=O)O)NC(=O)CCOCCC(=O)NCCNc2ncc(-c3cc(C)cc(F)c3)c(N3CCC(N)CC3)c2-c2nc3ccc(Cl)cc3[nH]2)C(C)C)cc1)C(C)C [Compound 102] (X1-[dE]V[Cit][PABC][NMeV]V[Dil][Dolaproine]-X2),0.067,130,19,–,–,–
CC[C@@]1(O)C(=O)OCc2c1cc1n(c2=O)Cc2c-1nc1cc(F)c(C)c3c1c2[C@@H](NC(=O)OCc1ccc(NC(=O)[C@H](CCCNC(N)=O)NC(=O)[C@@H](NC(=O)[C@H](CCC(=O)O)NC(=O)CCOCCC(=O)NCCNc2ncc(-c4cc(C)cc(F)c4)c(N4CCC(N)CC4)c2-c2nc4ccc(Cl)cc4[nH]2)C(C)C)cc1C(=O)NCCN)CC3 [Compound 94],–,–,–,0.16,260,2.4
CC[C@H](C)[C@@H]([C@@H](CC(=O)N1CCC[C@H]1[C@H](OC)[C@@H](C)C(=O)N[C@H](C)[C@@H](O)c1ccccc1)OC)N(C)C(=O)[C@@H](NC(=O)[C@H](C(C)C)N(C)C(=O)OCc1ccc(NC(=O)[C@H](CCCNC(N)=O)NC(=O)[C@@H](NC(=O)CCOCCOCCOCCOCCC(=O)NCCNc2ncc(-c3cc(C)cc(F)c3)c(N3CCC(O)CC3)c2-c2nc3ccc(Cl)cc3[nH]2)C(C)C)cc1)C(C)C [Compound 31],1700,1060,> 1000,–,–,–
CC[C@H](C)[C@@H]([C@@H](CC(=O)N1CCC[C@H]1[C@H](OC)[C@@H](C)C(=O)N[C@H](C)[C@@H](O)c1ccccc1)OC)N(C)C(=O)[C@@H](NC(=O)[C@H](C(C)C)N(C)C(=O)OCc1ccc(NC(=O)[C@H](C)NC(=O)[C@@H](NC(=O)CCCC(=O)N(C)CC(=O)NCCNc2ncc(-c3cc(C)cc(F)c3)c(N3CCC(N)CC3)c2-c2nc3ccc(Cl)cc3[nH]2)C(C)C)c(O[C@@H]2O[C@H](C(=O)O)[C@@H](O)[C@H](O)[C@H]2O)c1)C(C)C [Compound 140],0.33,5.4,1.8,–,–,–
CCC(C)C(C(CC(=O)N1CCCC1C(OC)C(C)C(=O)NC(C)C(O)c1ccccc1)OC)N(C)C(=O)C(NC(=O)C(C(C)C)N(C)C(=O)OCc1ccc(NC(=O)[C@H](CCCNC(N)=O)NC(=O)[C@@H](NC(=O)CCOCCOCCOCCOCCOCCOCCC(=O)NCCNc2ncc(-c3cc(C)cc(F)c3)c(N3CCC(N)CC3)c2-c2nc3ccc(Cl)cc3[nH]2)C(C)C)cc1)C(C)C (stereo in doubt) [Compound 40],0.36,46.5,26.4,–,–,–
COc1cc2cc(c1Cl)N(C)C(=O)CC(OC(=O)[C@@H](C)N(C)C(=O)CCSC1CC(=O)N(CC3CCC(C(=O)NCCNc4ncc(-c5cc(C)cc(F)c5)c(N5CCC(N)CC5)c4-c4nc5ccc(Cl)cc5[nH]4)CC3)C1=O)[C@]1(C)OC1[C@@H](C)C1C[C@@](O)(NC(=O)O1)[C@H](OC)/C=C/C=C(\C)C2 (stereo partly drawn) [Compound 6],0.22,11.7,5.3,–,–,–
CC[C@@]1(O)C(=O)OCc2c1cc1n(c2=O)Cc2c-1nc1cc(F)c(C)c3c1c2[C@@H](NC(=O)OCc1ccc(NC(=O)[C@H](CCCNC(N)=O)NC(=O)[C@@H](NC(=O)CN2CCN(CC(=O)O)CCN(CC(=O)NCCOCCC(=O)NCCNc4ncc(-c5cc(C)cc(F)c5)c(N5CCC(N)CC5)c4-c4nc5ccc(Cl)cc5[nH]4)CC2)C(C)C)cc1)CC3 [Compound 72],–,–,–,0.28,31,3.9
CC[C@H](C)[C@@H]([C@@H](CC(=O)N1CCC[C@H]1[C@H](OC)[C@@H](C)C(=O)N[C@H](C)[C@@H](O)c1ccccc1)OC)N(C)C(=O)[C@@H](NC(=O)[C@H](C(C)C)N(C)C(=O)OCc1ccc(NC(=O)[C@H](CCCNC(N)=O)NC(=O)[C@@H](NC(=O)CNC(=O)[C@H](CCC(=O)O)NC(=O)[C@H](CCC(=O)O)NC(=O)CCOCCC(=O)NCCNc2ncc(-c3cc(C)cc(F)c3)c(N3CCC(N)CC3)c2-c2nc3ccc(Cl)cc3[nH]2)C(C)C)cc1)C(C)C [Compound 111] (X1-EEGV[Cit][PABC][NMeV]V[Dil][Dolaproine]-X2),1.2,360,22,–,–,–
CC[C@H](C)[C@@H]([C@@H](CC(=O)N1CCC[C@H]1[C@H](OC)[C@@H](C)C(=O)N[C@H](C)[C@@H](O)c1ccccc1)OC)N(C)C(=O)[C@@H](NC(=O)[C@H](C(C)C)N(C)C(=O)OCc1ccc(NC(=O)[C@H](CCCNC(N)=O)NC(=O)[C@@H](NC(=O)[C@H](CCC(N)=O)NC(=O)CCOCCC(=O)NCCNc2ncc(-c3cc(C)cc(F)c3)c(N3CCC(N)CC3)c2-c2nc3ccc(Cl)cc3[nH]2)C(C)C)cc1C(N)=O)C(C)C [Compound 112],0.16,10,2.9,–,–,–
CC[C@H](C)[C@@H]([C@@H](CC(=O)N1CCC[C@H]1[C@H](OC)[C@@H](C)C(=O)N[C@H](C)[C@@H](O)c1ccccc1)OC)N(C)C(=O)[C@@H](NC(=O)[C@H](C(C)C)N(C)C(=O)OCc1ccc(NC(=O)[C@H](C)NC(=O)[C@@H](NC(=O)CCOCCNCCC(=O)NCCNc2ncc(-c3cc(C)cc(F)c3)c(N3CCC(N)CC3)c2-c2nc3ccc(Cl)cc3[nH]2)C(C)C)c(O[C@@H]2O[C@H](C(=O)O)[C@@H](O)[C@H](O)[C@H]2O)c1)C(C)C [Compound 156],0.24,76,25,–,–,–
CCC(C)C(C(CC(=O)N1CCCC1C(OC)C(C)C(=O)NC(C)C(O)c1ccccc1)OC)N(C)C(=O)C(NC(=O)C(C(C)C)N(C)C(=O)OCc1ccc(NC(=O)[C@H](CCCNC(N)=O)NC(=O)[C@@H](NC(=O)CCOCCOCCOCCOCCOCCOCCOCCOCCC(=O)NCCNc2ncc(-c3cc(C)cc(F)c3)c(N3CCC(N)CC3)c2-c2nc3ccc(Cl)cc3[nH]2)C(C)C)cc1)C(C)C (stereo in doubt) [Compound 27],0.2,65.5,27.8,–,–,–
CC[C@H](C)[C@@H]([C@@H](CC(=O)N1CCC[C@H]1[C@H](OC)[C@@H](C)C(=O)N[C@H](C)[C@@H](O)c1ccccc1)OC)N(C)C(=O)[C@@H](NC(=O)[C@H](C(C)C)N(C)C(=O)OCc1ccc(NC(=O)[C@H](C)NC(=O)[C@@H](NC(=O)[C@H](CCC(N)=O)NC(=O)CCCCCC(=O)NCCNc2ncc(-c3cc(C)cc(F)c3)c(N3CCC(N)CC3)c2-c2nc3ccc(Cl)cc3[nH]2)C(C)C)cc1C(=O)NCCN)C(C)C [Compound 121],0.45,0.62,3,–,–,–
CC[C@H](C)[C@@H]([C@@H](CC(=O)N1CCC[C@H]1[C@H](OC)[C@@H](C)C(=O)N[C@H](C)[C@@H](O)c1ccccc1)OC)N(C)C(=O)[C@@H](NC(=O)[C@H](C(C)C)N(C)C(=O)OCc1ccc(NC(=O)[C@H](C)NC(=O)[C@@H](NC(=O)CCOCCOCCOCCOCCC(=O)NCCNc2ncc(-c3cc(C)cc(F)c3)c(N3CCC(N)CC3)c2-c2nc3ccc(Cl)cc3[nH]2)C(C)C)c(O[C@@H]2O[C@H](C(=O)O)[C@@H](O)[C@H](O)[C@H]2O)c1)C(C)C [Compound 150],0.18,9.3,5.6,–,–,–
CC[C@H](C)[C@@H]([C@@H](CC(=O)N1CCC[C@H]1[C@H](OC)[C@@H](C)C(=O)N[C@H](C)[C@@H](O)c1ccccc1)OC)N(C)C(=O)[C@@H](NC(=O)[C@H](C(C)C)N(C)C(=O)OCc1ccc(NC(=O)[C@H](CCCNC(N)=O)NC(=O)[C@@H](NC(=O)[C@@H](CC(=O)O)NC(=O)[C@@H](CC(=O)O)NC(=O)[C@@H](CC(=O)O)NC(=O)CCOCCC(=O)NCCNc2ncc(-c3cc(C)cc(F)c3)c(N3CCC(N)CC3)c2-c2nc3ccc(Cl)cc3[nH]2)C(C)C)cc1)C(C)C [Compound 109] (X1-[dD][dD][dD]V[Cit][PABC][NMeV]V[Dil][Dolaproine]-X2),0.7,2500,11,–,–,–
CC[C@H](C)[C@@H]([C@@H](CC(=O)N1CCC[C@H]1[C@H](OC)[C@@H](C)C(=O)N[C@H](C)[C@@H](O)c1ccccc1)OC)N(C)C(=O)[C@@H](NC(=O)[C@H](C(C)C)N(C)C(=O)OCc1ccc(NC(=O)[C@H](CCCNC(N)=O)NC(=O)[C@@H](NC(=O)[C@H](CCC(N)=O)NC(=O)CCOCCOCCOCCOCCC(=O)NCCNc2ncc(-c3cc(C)cc(F)c3)c(N3CCC(N)CC3)c2-c2nc3ccc(Cl)cc3[nH]2)C(C)C)cc1C(=O)NCCN)C(C)C [Compound 58],0.37,11,5,–,–,–
